From patent US12384816B2, “Blood-brain barrier permeable peptide” (NATIONAL UNIVERSITY CORPORATION KUMAMOTO UNIVERSITY, priority 2018, dated 2025)
One block for each molecule: values may come before it. Positions of bridges follow the written chain, without caps; N, C: chain ends. Residues, ends and D or L forms follow the SMILES beside them.

Assays:
Type in all cases: cell-based, human
hCMEC/D3 cells [1] = assay: Influence of ligands on hCMEC/D3 permeation of SLS-phage
Experimental: Using the hCMEC/D3 cells, influences by various ligands (vitronectin, fibrinogen, RGD peptide, transferrin) on the BBB permeability of the phage presenting the peptide SLSHSPQ (SEQ ID NO: 1) of the present invention were tested.
In the +vitronectin group, human vitronectin (R&D Systems, Inc.) was added to give 20 μg/mL. In the +fibrinogen group, human fibrinogen (Wako) was added to give 50 μg/mL. In the +RGD group, an RGD peptide (SIGMA) was added to give 100 μM. In the +holo-Tf (transferrin) group, holo-Tf (SIGMA) was added to give 100 μM.

hCMEC/D3 cells [2] = assay: Influence of monensin on hCMEC/D3 permeation of SLS-phage; conditions: monensin-containing medium for 18 hours, concentration-dependent
Experimental: The medium at the luminal side and the abluminal side was replaced by a monensin-containing medium, and culture was further performed for 18 hours.

hCMEC/D3 cells [3] = assay: Uptake of FAM-labeled cyclic peptide into hCMEC/D3 cells (confocal microscopy); conditions: 10 µM, 37° C., 10, 30 and 60 minutes
Experimental: A FAM-labeled synthetic cyclic peptide having the SLSHSPQ (SEQ ID NO: 1) sequence was prepared by requesting Scrum Co., Ltd. A peptide having the sequence of […] (SEQ ID NO: 5), which contains […] (SEQ ID NO: 6), was chemically synthesized, and then a cyclic peptide was formed by forming a disulfide bond between the cysteine residues. Then, a lysine residue was added to the C-terminal and FAM was further bonded to prepare a FAM-labeled cyclic peptide.
The FAM-labeled synthetic cyclic peptide SLSHSPQ (SEQ ID NO: 1) (10 µM) was added to the cells, and incubated on a 37° C. hot plate for 10, 30 and 60 minutes. These were washed with 500 μL of cold PBS three times, and fixed with 4% PFA for 10 minutes. […] (registered trademark) Mounting Medium with DAPI was dropped, then, a cover glass was place thereon to enclose it, and FAM and DAPI were observed by a confocal microscopy. […] From this, it was confirmed that the synthetic cyclic peptide SLSHSPQ (SEQ ID NO: 1) is internalized in the cell.

hCMEC/D3 cells [4] = assay: Influence on tight junction (TEER) of hCMEC/D3 cells; conditions: 0 to 100 μM, until 48 hours
Experimental: The synthetic cyclic peptide SLSHSPQ (SEQ ID NO: 1) (0 to 100 μM) before labeling prepared in Example 3 was added to the cells, and they were incubated in a CO2 incubator at 37° C. The influence on tight junction was evaluated by measuring TEER over time until 48 hours later.

hCMEC/D3 cells [5] = assay: Cytotoxicity (cell counting kit-8) in hCMEC/D3 cells; conditions: 0 to 100 μM, 24 and 48 hours
Experimental: The synthetic cyclic peptide SLSHSPQ (SEQ ID NO: 1) (0 to 100 μM) was added to the cells, and incubated in a CO2 incubator at 37° C. The cell viability after 24 and 48 hours was calculated using the cell counting kit-8.

Molecule: fibrinogen
- effect on permeation of the SLS-phage (hCMEC/D3 cells [1]; human fibrinogen 50 μg/mL): did not inhibit

Molecule: CC[C@@]1([C@@H]2O[C@@H]([C@H]3O[C@@](O)(CO)[C@H](C)C[C@@H]3C)C[C@@H]2C)CC[C@H]([C@]2(C)CC[C@]3(C[C@H](O)[C@@H](C)[C@@H]([C@@H](C)[C@@H](OC)[C@H](C)C(=O)O)O3)O2)O1 [monensin]
- effect on hCMEC/D3 cell permeation amount of the SLS-phage (hCMEC/D3 cells [2]): increased

Molecule: holo-transferrin
- effect on permeation of the SLS-phage (hCMEC/D3 cells [1]; ligand 100 μM): promoted

Molecule: RGD peptide
- effect on permeation of the SLS-phage (hCMEC/D3 cells [1]; ligand 100 μM): did not inhibit

Molecule: FAM-labeled synthetic cyclic peptide SLSHSPQ: Cyclic ACSLSHSPQCGGGS with lysine residue added to the C-terminal and FAM bonded (not fully specified; cyclic; C-terminal lysine added; FAM label)
- uptake into hCMEC/D3 cells (hCMEC/D3 cells [3]): taken up into the cells

- influence on tight junction (TEER) (hCMEC/D3 cells [4]): did not reduce the tight junction
Molecule: CC(C)C[C@@H]1NC(=O)[C@H](CO)NC(=O)[C@@H](NC(=O)[C@H](C)N)CSSC[C@@H](C(=O)NCC(=O)NCC(=O)NCC(=O)N[C@@H](CO)C(=O)O)NC(=O)[C@H](CCC(N)=O)NC(=O)[C@@H]2CCCN2C(=O)[C@H](CO)NC(=O)[C@H](Cc2c[nH]cn2)NC(=O)[C@H](CO)NC1=O [synthetic cyclic peptide SLSHSPQ] (H-ACSLSHSPQCGGGS-OH; disulfide 2-10)
- cytotoxicity (cell viability) (hCMEC/D3 cells [5]): no cytotoxicity

B1: vitronectin (protein, UniProt P04004 20-478, looked up)
Vitronectin: DQESCKGRCTEGFNVDKKCQCDELCSYYQSCCTDYTAECKPQVTRGDVFTMPEDEYTVYDDGEEKNNATVHEQVGGPSLTSDLQAQSKGNPEQTPVLKPEEEAPAPEVGASKPEGIDSRPETLHPGRPQPPAEEELCSGKPFDAFTDLKNGSLFAFRGQYCYELDEKAVRPGYPKLIRDVWGIEGPIDAAFTRINCQGKTYLFKGSQYWRFEDGVLDPDYPRNISDGFDGIPDNVDAALALPAHSYSGRERVYFFKGKQYWEYQFQHQPSQEECEGSSLSAVFEHFAMMQRDSWEDIFELLFWGRTSAGTRQPQFISRDWHGVPGQVDAAMAGRIYISGMAPRPSLAKKQRFRHRNRKGYRSQRGHSRGRNQNSRRPSRATWLSLFSSEESNLGANNYDDYRMDWLVPATCEPIQSVFFFSGDKYYRVNLRTRRVDTVDPPYPRSIAQYWLGCPAPGHL
notes: human vitronectin (R&D Systems, Inc.)
- effect on permeation of the SLS-phage (hCMEC/D3 cells [1]; human vitronectin 20 μg/mL): inhibited
